Assay results reported in patent US20230053649A1 (Cedilla Therapeutics, Inc., priority 2021, published 2023).

Columns and labels:
[1] = test system: mesothelioma cell line NCI-H226; test: 72H TEAD Proliferation Assay (Cell Titer-Glo 2.0); format: cell-based; conditions: Homo sapiens, CTG 2.0, cell line not given in Table 1 (NCI-H226 TEAD-responsive, NCI-H28 non-responsive counter-screen)
Experimental: 72H TEAD Proliferation Assay.
The effect of TEAD inhibition on cell proliferation was assayed using Cell Titer Glo (CTG) 2.0 to measure response in mesothelioma cell lines NCI-H226 (ATCC, #CRL-5826) and NCI-H28 (ATCC, #CRL-5820).
The 72H TEAD Proliferation assay utilizes Cell Titer-Glo 2.0 (Promega, #G9243) to measure the proliferation of cells in the presence or absence of compound. Cell Titer-Glo 2.0 determines the amount of viable cells by quantifying ATP (an indication of metabolically active cells). It utilizes the conversion of Luciferin to Oxyluciferin and a luminescent signal with the use of ATP to report the quantity of viable cells in culture. Within cells that are continually growing, ATP is being synthesized to meet their metabolic demands, meanwhile the opposite is true for cells that are dying or slowing down their proliferation and either no longer using ATP or are using less, respectively. The NF2-deficient NCI-H226 has been genetically validated as a cell line that is sensitive to TEAD inhibition. The NF2-wild type NCI-H28 has been genetically validated as a cell line that is not sensitive to TEAD inhibition and grows independently of TEAD activity.
Compounds were screened against the responsive NCI-H226 cell line to assess the compounds' ability to inhibit TEAD and cell growth. Compounds were also screened against the non-responsive NCI-H28 cell line to ascertain whether the inhibition of cell growth was due to inhibition of the target TEAD or whether the inhibition was due to off-target cytotoxicity.
Both NCI-H226 and NCI-H28 cells were grown at 37° C. with 5% CO2 using Growth Medium 1.
Anti-proliferative effect of compounds that inhibits TEAD activity measured by CTG
1) Assay ready plates (ARPs) were prepared by Echo acoustic liquid handler. For each compound, duplicate of 10-point half-log dilution series were dispensed in a 384-well microplate (Corning 3571).
3) Before use, ARPs were allowed to warm up to room temperature for 30 min.
4) ARPs were spun for 5 minutes at 1500RPM before removing the plate seals.
5) NCI-H226 or NCI-H28 cells were harvested from culture in Assay Medium 1 and the multidrop Combi reagent dispenser was used to seed cells at 500 cells per 50ul in each well of the ARPs and one Corning 3571 plate without compounds for Time 0 (TO) readout.
6) The TO plate was incubated for 2 hours at 37° C. with 5% CO2 to allow cells to settle, then the CTG Assay was performed.
7) All ARPs were incubated for 72 hours at 37° C. with 5% CO2, then the CTG Assay was performed for Time 72H (T72) readout.
8) CTG Assay: Bravo liquid handler (Agilent) was used to add 25ul of CTG 2.0 to all columns of the plate except for Column 24, which was used to subtract out the background. After CTG addition, plates were placed on shaker at 800RPM for 15 minutes at room temperature and kept in the dark. Luminescence was measured using EnVision multilabel plate reader with ultra-sensitive detection module.
9) Data Analysis: First background luminescence (no CTG wells) was subtracted from luminescence reading of all wells, then TO luminescence was subtracted from T72 luminescence. To compare anti-proliferative effect of compounds, GI50 was obtained by fitting dose response curves with nonlinear regression curve fit.

[2] = target: T1, TEAD1 protein (YAP Binding Domain) (Homo sapiens, UniProt P28347); test: TEAD1 lipid pocket compound displacement assay (CDA, TR-FRET); conditions: read-out: CDA IC50, displacement of Cy5-probe from His-TEAD1, 60 minutes at room temperature
T1 sequence (P28347 167-426 limits assumed): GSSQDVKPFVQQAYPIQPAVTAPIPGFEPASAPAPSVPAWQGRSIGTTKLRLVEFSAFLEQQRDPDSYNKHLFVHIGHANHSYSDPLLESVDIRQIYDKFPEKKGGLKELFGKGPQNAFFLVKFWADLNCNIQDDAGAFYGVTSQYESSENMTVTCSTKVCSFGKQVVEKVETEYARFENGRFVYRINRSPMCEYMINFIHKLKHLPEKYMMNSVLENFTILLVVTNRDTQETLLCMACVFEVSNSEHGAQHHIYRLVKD
Experimental: Compound Displacement Assay.
(§1) A TEAD1 lipid pocket displacement assay was carried out according to the following protocol. Purified His-tagged TEAD1 protein (YAP Binding Domain) was pre-mixed with a Cy5-probe (Cy5-conjugated to a small molecule that binds in the TEAD1 lipid pocket) and Terbium-labeled anti-His antibody (Cisbio Cat 61HI2TLB). The binding of the Cy5-probe to anti-His-Tb/His-tag TEAD1 complex yielded a TR-FRET signal. […] After 60 minutes incubation at room temperature of compounds with the His-TEAD1/anti-His-Tb/Cy5-probe complex, the plate was read on a plate reader (BMG ClarioStar Cat 430-1300) using TR-FRET mode with wavelengths of 665 nm/620 nm. The potency of compounds as TEAD1 lipid pocket binders was determined by IC50 value generated using a non-linear 4 parameter curve fit.

[3] = target: T1, TEAD1 protein (YAP Binding Domain); test: biochemical
Experimental: Compound Displacement Assay.
as §1

[4] = test system: EGFR-mutant NSCLC PC-9 cells; test: Apoptosis (caspase-3/7, IncuCyte) in combination with EGFR inhibitor Osimertinib; format: cell-based
Experimental: Apoptosis was detected by CellEvent Caspase 3/7 Green ReadyProbes Reagent (ThermoFisher), a fluorogenic indicator of activated caspase-3/7. Cell death (apoptsis) and cell growth (phase confluence) over time were captured by IncuCyte live cell imaging system (Essen Bioscience) and quantified by IncuCyte S3 software (Essen Bioscience). Apoptotic Index was calculated by dividing apoptosis signal with phase confluence.

Row | Structure (SMILES) | GI50 [1] | IC50 [3] | other results
1 | COc1ccc2c(N3CCC(C(F)(F)F)CC3)nc(C(N)=O)cc2c1 [Compound 66] | 1 to 5 µM |  | IC50 [2]: < 0.15 µM
2 | COc1cc(N2CCC(C(F)(F)F)CC2)c2ncc(C(=O)N[C@H](C)CO)cc2c1 [Compound I-1, (R)-N-(1-hydroxypropan-2-yl)-6-methoxy-8-(4-(trifluoromethyl)piperidin-1-yl)quinoline-3-carboxamide] | 0.5 to 1 µM | 0.15 to 0.3 µM | Fold Change over DMSO at 48 hrs (apoptotic index) ([4]; I-1 (10 μM) alone): 1.0; Fold Change over DMSO at 48 hrs (apoptotic index) ([4]; Osimertinib (100 nM) + I-1 (0.37 μM), 24 h Osimertinib pre-treatment): 4.1; Fold Change over DMSO at 48 hrs (apoptotic index) ([4]; Osimertinib (100 nM) + I-1 (1.1 μM), 24 h Osimertinib pre-treatment): 5.4; Fold Change over DMSO at 48 hrs (apoptotic index) ([4]; Osimertinib (100 nM) + I-1 (10 μM), 24 h Osimertinib pre-treatment): 7.0
3 | C[C@H](CO)NC(=O)c1cnc2c(N3CCC(C(F)(F)F)CC3)cccc2c1 [Compound I-60, (R)-N-(1-hydroxypropan-2-yl)-8-(4-(trifluoromethyl)piperidin-1-yl)quinoline-3-carboxamide] | 0.5 to 1 µM | 0.15 to 0.3 µM | 
4 | COC[C@H](C)NC(=O)c1cnc2c(N3CCC(C(F)(F)F)CC3)cccc2c1 [Compound I-61, (S)-N-(1-methoxypropan-2-yl)-8-(4-(trifluoromethyl)piperidin-1-yl)quinoline-3-carboxamide] | 0.5 to 1 µM | 0.15 to 0.3 µM | 
5 | CCOc1cc2cc(C(=O)N[C@H](C)CO)ccc2c(N2CCC(C(F)(F)F)CC2)n1 [Compound I-62, (R)-3-ethoxy-N-(1-hydroxypropan-2-yl)-1-(4-(trifluoromethyl)piperidin-1-yl)isoquinoline-6-carboxamide] | ≤ 0.5 µM | < 0.15 µM | 
6 | C[C@H](CO)NC(=O)c1ccc2c(N3CCC(C(F)(F)F)CC3)nccc2c1 [Compound I-63, (R)-N-(1-hydroxypropan-2-yl)-1-(4-(trifluoromethyl)piperidin-1-yl)isoquinoline-6-carboxamide] | 1 to 5 µM | 0.3 to 0.5 µM | 
7 | COc1cc2cc(C(=O)N[C@@H](C)c3ccccn3)ccc2c(N2CCC(C(F)(F)F)CC2)n1 [Compound I-64, (S)-3-methoxy-N-(1-(pyridin-2-yl)ethyl)-1-(4-(trifluoromethyl)piperidin-1-yl)isoquinoline-6-carboxamide] | ≤ 0.5 µM | < 0.15 µM | 
8 | CC[C@H](CO)NC(=O)c1ccc2c(N3CCC(C(F)(F)F)CC3)nc(OC)cc2c1 [Compound I-65, (R)-N-(1-hydroxybutan-2-yl)-3-methoxy-1-(4-(trifluoromethyl)piperidin-1-yl)isoquinoline-6-carboxamide] | ≤ 0.5 µM | < 0.15 µM | 
9 | C#Cc1ccc(-c2cccc3cc(C(=O)N[C@@H](C)c4ccccn4)cnc23)cc1 [I′-29, (S)-8-(4-ethynylphenyl)-N-(1-(pyridin-2-yl)ethyl)quinoline-3-carboxamide] | 1 to 5 µM | < 0.15 µM | 
10 | C[C@H](NC(=O)c1cnc2c(-c3ccc(C#N)cc3)cccc2c1)c1ccccn1 [I′-32, (S)-8-(4-cyanophenyl)-N-(1-(pyridin-2-yl)ethyl)quinoline-3-carboxamide] | 1 to 5 µM | 0.3 to 0.5 µM | 
11 | COc1cc(-c2ccc(C(C)(C)C)cc2)c2ncc(C(=O)N[C@H](C)CO)cc2c1 [I′-33, (R)-8-(4-(tert-butyl)phenyl)-N-(1-hydroxypropan-2-yl)-6-methoxyquinoline-3-carboxamide] | 0.5 to 1 µM | 0.15 to 0.3 µM | 
12 | COc1cc(-c2ccc(C(C)(C)O)cc2)c2ncc(C(=O)N[C@H](C)CO)cc2c1 [I′-34, (R)-N-(1-hydroxypropan-2-yl)-8-(4-(2-hydroxypropan-2-yl)phenyl)-6-methoxyquinoline-3-carboxamide] | > 5 µM | 0.3 to 0.5 µM | 
13 | CC[C@H](CO)NC(=O)c1ccc2c(-c3ccc(C(F)(F)F)cc3)nc(OC)cc2c1 [I″-53, (R)-N-(1-hydroxybutan-2-yl)-3-methoxy-1-(4-(trifluoromethyl)phenyl)isoquinoline-6-carboxamide] | ≤ 0.5 µM | < 0.15 µM | 
14 | COC[C@H](C)NC(=O)c1ccc2c(-c3ccc(C(F)(F)F)cc3)nc(OC)cc2c1 [I″-54, (S)-3-Methoxy-N-(1-methoxypropan-2-yl)-1-(4-(trifluoromethyl)phenyl)isoquinoline-6-carboxamide] | ≤ 0.5 µM | < 0.15 µM | 
15 | COc1cc2cc(C(=O)N[C@@H](C)c3ccccn3)ccc2c(-c2ccc(C(F)(F)F)cc2)n1 [I″-55, (S)-3-methoxy-N-(1-(pyridin-2-yl)ethyl)-1-(4-(trifluoromethyl)phenyl)isoquinoline-6-carboxamide] | ≤ 0.5 µM | < 0.15 µM | 
16 | C[C@H](CO)NC(=O)c1ccc2c(-c3ccc(C(F)(F)F)cc3)[nH]c(=O)cc2c1 [I″-56] | > 5 µM | > 0.5 µM | 
17 | C=CC(=O)Nc1cc(Nc2nccc(-c3cn(C)c4ccccc34)n2)c(OC)cc1N(C)CCN(C)C [Osimertinib, reference compound] |  |  | Fold Change over DMSO at 48 hrs (apoptotic index) ([4]; Osimertinib (100 nM) alone): 2.6
